Series [1] concerns intestinal stricture associated with Crohn's disease. Nature of the series: Effect of tranilast on progression of intestinal stricture in Crohn's disease patients, randomized against a group not given tranilast. In kind it is in vivo, human (Crohn's disease patients). The procedure:
In 24 Crohn's disease patients with non-symptomatic intestinal stricture, the effect by tranilast on the progression of intestinal stricture associated with Crohn's disease was evaluated and compared between one group administered tranilast and another group not administered tranilast. There was no significant difference in backgrounds of the patients between the groups. The 24 patients were randomly divided into two groups consisting of a group administered tranilast (12 cases) and a group not administered tranilast (12 cases). […] The primary endpoint was a cumulative non-symptomatic stricture rate which was a rate of cases wherein severe symptomatic intestinal stricture requiring balloon dilatation or surgery occurred. In addition, the diameters of the stricture at the beginning of observation (basal diameter) and at the end of observation (final diameter) were measured. The secondary endpoint was a monthly progression rate of the stricture obtained from the rate of the final diameter relative to the basal diameter.

The next series has as its system Crohn's disease. To be noted: single case; tranilast with enteral nutrients, low residue diet and mepenzolate bromide; cited from earlier work.

“Also recorded” adds a separate entry of the source.

As to `COc1ccc(C=CC(=O)Nc2ccccc2C(=O)O)cc1OC` [tranilast, N-(3,4-dimethoxycinnamoyl)anthranilic acid], in series [1] (from the final diameter relative to the basal diameter, −0.86% in the group not given tranilast), the monthly progression rate of the stricture is -0.48%. For the same compound, in series [1] (group administered tranilast 200 mg three times daily, median observation 782 days), the “average diameter of the stricture at the end of observation (final diameter)” value is 5.60 mm. The “average diameter of the stricture at the beginning of observation (basal diameter)” value in series [1] (group administered tranilast, baseline) came out at 6.40 mm. Further, the “cases withdrawn due to discontinued administration because of a reduced peripheral white blood cell count” value in series [1] (of 12 cases, tranilast 200 mg three times daily) was 1 case. Moreover, in series [1] (tranilast 200 mg three times daily orally, 12 cases, 5 cases in the group not given tranilast), the “number of cases who required balloon dilatation due to severe intestinal stricture” value turned out to be 1 case. The “incidence of intestinal obstruction/stricture symptoms due to intestinal stricture (cumulative non-symptomatic stricture rate)” value in series [1] (tranilast 600 mg per day versus the group not given tranilast, p=0.0034) is on record as “significantly inhibited; also recorded: significantly low”. For the same compound, the “period maintained without exacerbation of symptoms of Crohn's disease” value with Crohn's disease is 3 years.

Source of the values: patent US20100113597A1, “PHARMACEUTICAL COMPOSITION FOR PREVENTION OF PROGRESS OF INTESTINAL CONSTRICTION ASSOCIATED WITH CROHN'S DISEASE” (priority 2007, published 2010).
